These are literature values, as cited in patent US20080188457A1, “Modulation of Neurogenesis with Biguanides and GSK3-beta Agents” (BrainCells, Inc., priority 2007, published 2008).

The IC50 is the point on the concentration scale where inhibition reaches its midpoint. A word on the EC50: it is the concentration giving half of the maximal effect.

The target in one data set is mGluR2 (Homo sapiens, UniProt Q14416).
For another data set, the target named is mGluR3 (Homo sapiens, UniProt Q14832).
Sequence of mGluR3 (Q14832 23-879): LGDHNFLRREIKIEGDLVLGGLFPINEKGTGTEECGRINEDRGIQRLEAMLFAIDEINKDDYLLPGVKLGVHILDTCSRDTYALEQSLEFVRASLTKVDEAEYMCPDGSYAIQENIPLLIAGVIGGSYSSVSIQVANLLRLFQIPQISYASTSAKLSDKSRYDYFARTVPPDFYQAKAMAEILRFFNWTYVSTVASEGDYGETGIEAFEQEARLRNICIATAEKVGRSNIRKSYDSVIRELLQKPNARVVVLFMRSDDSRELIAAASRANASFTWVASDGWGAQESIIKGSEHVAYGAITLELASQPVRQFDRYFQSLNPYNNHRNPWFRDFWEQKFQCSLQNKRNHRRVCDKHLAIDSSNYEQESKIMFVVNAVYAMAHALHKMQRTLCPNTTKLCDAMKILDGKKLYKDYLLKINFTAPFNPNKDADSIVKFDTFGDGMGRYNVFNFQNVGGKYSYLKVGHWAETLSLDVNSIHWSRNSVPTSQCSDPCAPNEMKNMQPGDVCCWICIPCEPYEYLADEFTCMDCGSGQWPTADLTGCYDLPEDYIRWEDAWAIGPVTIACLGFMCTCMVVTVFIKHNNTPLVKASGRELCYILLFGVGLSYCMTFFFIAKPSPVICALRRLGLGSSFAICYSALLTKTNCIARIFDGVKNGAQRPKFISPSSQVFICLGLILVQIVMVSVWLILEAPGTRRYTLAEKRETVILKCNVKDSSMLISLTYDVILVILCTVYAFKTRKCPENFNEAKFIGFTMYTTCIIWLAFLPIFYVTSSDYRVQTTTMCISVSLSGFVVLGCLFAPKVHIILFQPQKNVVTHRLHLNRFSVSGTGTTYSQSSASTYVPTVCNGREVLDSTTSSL
Data set [1] relates to Group I or Group III receptors. Conditions: at sub-mM concentrations.
Data set [2] has as its system KA, AMPA, and NMDA iGlu receptors.
A further data set deals with human mGlu2 receptor (Homo sapiens, UniProt Q14416). Conditions: in vitro; low nanomolar range.
Sequence of human mGlu2 receptor (Q14416 19-872): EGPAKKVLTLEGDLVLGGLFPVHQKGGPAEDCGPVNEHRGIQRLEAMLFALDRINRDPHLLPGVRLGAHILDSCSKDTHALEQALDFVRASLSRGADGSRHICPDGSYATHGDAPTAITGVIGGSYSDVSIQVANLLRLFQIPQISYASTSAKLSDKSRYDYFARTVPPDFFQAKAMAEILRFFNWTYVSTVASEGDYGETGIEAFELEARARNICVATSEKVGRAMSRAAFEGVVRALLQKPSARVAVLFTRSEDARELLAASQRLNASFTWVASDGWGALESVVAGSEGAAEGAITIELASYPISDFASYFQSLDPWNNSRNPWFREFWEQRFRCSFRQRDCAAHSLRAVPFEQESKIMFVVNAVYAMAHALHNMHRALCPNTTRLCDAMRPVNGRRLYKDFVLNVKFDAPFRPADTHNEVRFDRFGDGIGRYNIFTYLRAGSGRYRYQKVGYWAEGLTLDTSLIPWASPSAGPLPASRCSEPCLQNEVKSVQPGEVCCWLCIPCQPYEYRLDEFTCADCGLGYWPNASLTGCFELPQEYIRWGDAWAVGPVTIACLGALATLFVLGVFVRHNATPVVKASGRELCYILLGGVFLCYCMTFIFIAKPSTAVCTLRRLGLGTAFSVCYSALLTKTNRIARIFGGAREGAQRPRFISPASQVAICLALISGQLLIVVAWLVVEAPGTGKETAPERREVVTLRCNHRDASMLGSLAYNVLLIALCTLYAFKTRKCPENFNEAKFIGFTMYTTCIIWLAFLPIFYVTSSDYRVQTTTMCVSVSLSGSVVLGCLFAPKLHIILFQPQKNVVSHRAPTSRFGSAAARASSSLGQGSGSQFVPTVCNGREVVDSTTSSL
Another data set addresses human mGlu3 receptor (Homo sapiens, UniProt Q14832). Conditions: in vitro; low nanomolar range.
Another data set deals with gluconeogenesis. Conditions: person with type 2 diabetes.

Sequence of mGluR2 (Q14416 19-872): as above
Sequence of human mGlu3 receptor (Q14832 23-879): as the sequence (Q14832 23-879) above

Take `NC1(C(=O)O)CCc2cc(P(=O)(O)O)ccc21` (racemic) [APICA, (RS)-1-amino-5-phosphonoindan-1-carboxylic acid]: the IC50 on mGluR2 and on mGluR3 was around 30 µM throughout. Also, the “activity against Group I or Group III receptors” value in data set [1] is “no appreciable activity”.

On to `N[C@](CC1c2ccccc2Oc2ccccc21)(C(=O)O)[C@H]1C[C@@H]1C(=O)O` [LY341495, (2S)-2-amino-2-(1S,2S-2-carboxycycloprop-1-yl)-3-(xanth-9-yl) propanoic acid], for which the “activity against KA, AMPA, and NMDA iGlu receptors” value in data set [2] is “substantially inactive”.

As for `N[C@@]1(C(=O)O)CO[C@H]2[C@H](C(=O)O)[C@H]21` [LY379268, (−)-2-Oxa-4-aminobicyclohexane-4,6-dicarboxylic acid], the EC50 on human mGlu2 receptor and at human mGlu3 receptor was below 0.01 µM throughout.

Regarding `CN(C)C(=N)NC(=N)N` [metformin, 1,1-Dimethylbiguanide], in the data set on gluconeogenesis, the “reduction of the rate of gluconeogenesis” value is on record as “over one third”.
